From paper PMC10323144, “Garbage in, garbage out: how reliable training data improved a virtual screening approach against SARS-CoV-2 MPro” (Frontiers in Pharmacology, 2023)
Square brackets hold non-standard residues; d marks the D form. Peptide text beside a SMILES is read from it. * marks the point of attachment. ξ: configuration not given here. Boc = CC(C)(C)OC(=O)*; ξV = CC(C)C(N)C(=O)O; GABA = NCCCC(=O)O; ξA = CC(N)C(=O)O

Test system: MPro
Experiment: not given
Details: compiled from peer-reviewed sources (287 compounds) ref the 18 original articles; cited from earlier work

| Compound | Class (MPro activity class) |
| --- | --- |
| N#Cc1ccccc1-c1cc(-c2cc(Cl)cc(OCCc3ccccc3)c2)c(=O)n(-c2cccnc2)c1 [compound 8] | 1 (Compounds with IC50 < 10 µM or with a percentage of enzyme inhibition >50% at 10 µM were labelled as ACTIVE) |
| CCCOc1cc(Cl)cc(-c2cc(-c3ccccc3C#N)cn(-c3cncnc3)c2=O)c1 [compound 9] | 1 (Compounds with IC50 < 10 µM or with a percentage of enzyme inhibition >50% at 10 µM were labelled as ACTIVE) |
| COc1cc(Cl)cc(-c2cc(-c3c[nH]c(=O)[nH]c3=O)cn(-c3cccnc3)c2=O)c1 [compound 10] | 1 (Compounds with IC50 < 10 µM or with a percentage of enzyme inhibition >50% at 10 µM were labelled as ACTIVE) |
| CCCOc1cc(Cl)cc(-c2cc(-c3c[nH]c(=O)[nH]c3=O)cn(-c3cccnc3)c2=O)c1 [compound 11] | 1 (Compounds with IC50 < 10 µM or with a percentage of enzyme inhibition >50% at 10 µM were labelled as ACTIVE) |
| O=C(C=Cc1ccccc1)NC(CC1CCCCC1)C(=O)NC(CC1CCNC1=O)C(=O)C(=O)NCc1ccccc1 (stereo not shown) [compound 11r] | 1 (Compounds with IC50 < 10 µM or with a percentage of enzyme inhibition >50% at 10 µM were labelled as ACTIVE) |
| CCCCOc1cc(Cl)cc(-c2cc(-c3c[nH]c(=O)[nH]c3=O)cn(-c3cccnc3)c2=O)c1 [compound 12] | 1 (Compounds with IC50 < 10 µM or with a percentage of enzyme inhibition >50% at 10 µM were labelled as ACTIVE) |
| CCCCCOc1cc(Cl)cc(-c2cc(-c3c[nH]c(=O)[nH]c3=O)cn(-c3cccnc3)c2=O)c1 [compound 13] | 1 (Compounds with IC50 < 10 µM or with a percentage of enzyme inhibition >50% at 10 µM were labelled as ACTIVE) |
| CC(C)(C)OC(=O)Nc1cccn(C(CC2CC2)C(=O)NC(CC2CCNC2=O)C(=O)C(=O)NC2CC2)c1=O (stereo not shown) [compound 13b] | 1 (Compounds with IC50 < 10 µM or with a percentage of enzyme inhibition >50% at 10 µM were labelled as ACTIVE) |
| O=c1[nH]cc(-c2cc(-c3cc(Cl)cc(OCc4ccccc4)c3)c(=O)n(-c3cccnc3)c2)c(=O)[nH]1 [compound 14] | 1 (Compounds with IC50 < 10 µM or with a percentage of enzyme inhibition >50% at 10 µM were labelled as ACTIVE) |
| O=c1[nH]cc(-c2cc(-c3cc(Cl)cc(OCCc4ccccc4)c3)c(=O)n(-c3cccnc3)c2)c(=O)[nH]1 [compound 15] | 1 (Compounds with IC50 < 10 µM or with a percentage of enzyme inhibition >50% at 10 µM were labelled as ACTIVE) |
| Cc1ccccc1COc1cc(Cl)cc(-c2cc(-c3c[nH]c(=O)[nH]c3=O)cn(-c3cccnc3)c2=O)c1 [compound 16] | 1 (Compounds with IC50 < 10 µM or with a percentage of enzyme inhibition >50% at 10 µM were labelled as ACTIVE) |
| Cc1cccc(COc2cc(Cl)cc(-c3cc(-c4c[nH]c(=O)[nH]c4=O)cn(-c4cccnc4)c3=O)c2)c1 [compound 17] | 1 (Compounds with IC50 < 10 µM or with a percentage of enzyme inhibition >50% at 10 µM were labelled as ACTIVE) |
| O=c1[nH]cc(-c2cc(-c3cc(Cl)cc(OCc4ccccc4F)c3)c(=O)n(-c3cccnc3)c2)c(=O)[nH]1 [compound 18] | 1 (Compounds with IC50 < 10 µM or with a percentage of enzyme inhibition >50% at 10 µM were labelled as ACTIVE) |
| O=c1[nH]cc(-c2cc(-c3cc(Cl)cc(OCc4cccc(F)c4)c3)c(=O)n(-c3cccnc3)c2)c(=O)[nH]1 [compound 19] | 1 (Compounds with IC50 < 10 µM or with a percentage of enzyme inhibition >50% at 10 µM were labelled as ACTIVE) |
| O=c1[nH]cc(-c2cc(-c3cc(Cl)cc(OCc4c(F)cccc4F)c3)c(=O)n(-c3cccnc3)c2)c(=O)[nH]1 [compound 20] | 1 (Compounds with IC50 < 10 µM or with a percentage of enzyme inhibition >50% at 10 µM were labelled as ACTIVE) |
| O=c1[nH]cc(-c2cc(-c3cc(Cl)cc(OCc4ccccc4Cl)c3)c(=O)n(-c3cccnc3)c2)c(=O)[nH]1 [compound 21] | 1 (Compounds with IC50 < 10 µM or with a percentage of enzyme inhibition >50% at 10 µM were labelled as ACTIVE) |
| O=c1[nH]cc(-c2cc(-c3cc(Cl)cc(OCc4ccc(F)cc4Cl)c3)c(=O)n(-c3cccnc3)c2)c(=O)[nH]1 [compound 22] | 1 (Compounds with IC50 < 10 µM or with a percentage of enzyme inhibition >50% at 10 µM were labelled as ACTIVE) |
| CC(C)C[C@H](NC(=O)[C@@H](NC(=O)c1cccc(-c2ccccc2)n1)[C@@H](C)O)B(O)O [delanzomib] | 0 (compounds with IC50 > 20 μM, percentage inhibition <80% at 20 µM or 50 μM, or percentage enzyme inhibition <50% at 10 µM were labelled as INACTIVE) |
| Nc1ccn([C@H]2C[C@H](O)[C@@H](COP(=O)(O)OP(=O)(O)OP(=O)(O)OP(=O)(O)OC[C@H]3O[C@@H](n4ccc(=O)[nH]c4=O)[C@H](O)[C@@H]3O)O2)c(=O)n1 [denufosol (DB04983), denufosol] | 0 (compounds with IC50 > 20 μM, percentage inhibition <80% at 20 µM or 50 μM, or percentage enzyme inhibition <50% at 10 µM were labelled as INACTIVE) |
| C=C(CC)C(=O)c1ccc(OCC(=O)O)c(Cl)c1Cl [ethacrynic acid] | 0 (compounds with IC50 > 20 μM, percentage inhibition <80% at 20 µM or 50 μM, or percentage enzyme inhibition <50% at 10 µM were labelled as INACTIVE) |
| C[C@H]1C[C@@H]2[C@H]([C@@H](O)C[C@@]3(C)[C@H]2CC[C@]3(O)C(=O)CO)[C@@]2(C)C=CC(=O)C=C12 [methylprednisolone] | 0 (compounds with IC50 > 20 μM, percentage inhibition <80% at 20 µM or 50 μM, or percentage enzyme inhibition <50% at 10 µM were labelled as INACTIVE) |
| Carmofur | 1 (Compounds with IC50 < 10 µM or with a percentage of enzyme inhibition >50% at 10 µM were labelled as ACTIVE) |
| Disulfiram | 1 (Compounds with IC50 < 10 µM or with a percentage of enzyme inhibition >50% at 10 µM were labelled as ACTIVE) |
| Forsythoside B | 1 (Compounds with IC50 < 10 µM or with a percentage of enzyme inhibition >50% at 10 µM were labelled as ACTIVE) |
| MLN9708 | 0 (compounds with IC50 > 20 μM, percentage inhibition <80% at 20 µM or 50 μM, or percentage enzyme inhibition <50% at 10 µM were labelled as INACTIVE) |
| Maraviroc | 0 (compounds with IC50 > 20 μM, percentage inhibition <80% at 20 µM or 50 μM, or percentage enzyme inhibition <50% at 10 µM were labelled as INACTIVE) |
| Phillyrin | 0 (compounds with IC50 > 20 μM, percentage inhibition <80% at 20 µM or 50 μM, or percentage enzyme inhibition <50% at 10 µM were labelled as INACTIVE) |
| TERIFLUNOMIDE | 0 (compounds with IC50 > 20 μM, percentage inhibition <80% at 20 µM or 50 μM, or percentage enzyme inhibition <50% at 10 µM were labelled as INACTIVE) |
| cangrelor | 0 (compounds with IC50 > 20 μM, percentage inhibition <80% at 20 µM or 50 μM, or percentage enzyme inhibition <50% at 10 µM were labelled as INACTIVE) |

Target: SARS-CoV-2 MPro (Severe acute respiratory syndrome coronavirus 2, UniProt P0DTD1)
Experiment: MPro activity assay (de-quenching of Edans fluorescence on cleavage of a Dabcyl/Edans peptide)
Format: biochemical
Details: 10 μM or 25 μM compound

| Compound | % activity MPro at 10 μM or 25 μM [%] |
| --- | --- |
| Oc1cc(O)c2c(c1)O[C@H](c1ccc(O)c(O)c1)[C@H](O)C2 [4b, epicatechin] | 88.7 ± 0.6 |

Same assay, conditions: 25 μM where stated

| Compound | activity against MPro (in words) |
| --- | --- |
| Oc1cc(O)c2c(c1)O[C@H](c1ccc(O)c(O)c1)[C@H](O)C2 [4b, epicatechin] | negligible activity |
| O=C(O[C@@H]1Cc2c(O)cc(O)cc2O[C@@H]1c1ccc(O)c(O)c1)c1cc(O)c(O)c(O)c1 [5b, epicatechin gallate] | full inhibition |

Same assay, conditions: 60 min pre-incubation, 5 μM substrate

| Compound | IC50 [µM] |
| --- | --- |
| COc1ccc(C(=O)C2=C(O)C(=O)N(c3nc4ccc(Cl)cc4s3)C2c2ccc(F)cc2)cc1OC (stereo not shown) [1a] | < 25 |
| COC(=O)[C@@H](Cc1ccccc1)NC(=O)C(C)NC(=O)[C@@H](NC(=O)C(NC(=O)CCCNC(=O)OC(C)(C)C)C(C)C)C(C)C (stereo partly shown) [2a] ({Boc-GABA}-[ξV]V[ξA][dF]-OMe) | 32.1 ± 1.4 |

Same assay, conditions: read-out: MPro activity (%)

| Compound | activity at 25 µM [%] |
| --- | --- |
| COc1ccc(C(=O)C2=C(O)C(=O)N(c3nc4ccc(Cl)cc4s3)C2c2ccc(F)cc2)cc1OC (stereo not shown) [1a] | 34.8 ± 3.4 |
| [O-][n+]1onc2cc(Cl)cc(Cl)c21 [1d] | 89.3 ± 1.9 |
| CC(C)(C)OC(=O)NC1CCCN(CC(=O)NC(Cc2ccccc2)C(=O)Nc2nc3cc(Sc4ccccc4)ccc3[nH]2)C1=O (stereo not shown) [3a] | 64.9 ± 11.6 |
| Cc1c(C(=O)NCc2ccccc2)[n+]([O-])c2ccccc2[n+]1[O-] [4a] | 59.4 ± 3.6 |
| O=S(=O)(O)c1ccc(/C=N/N=c2\scc(-c3cs/c(=N\N=C\c4ccc(S(=O)(=O)O)o4)n3-c3ccccc3)n2-c2ccccc2)o1 [5a] | 65.6 ± 10.9 |
| O=C(O[C@@H]1Cc2c(O)cc(O)cc2O[C@@H]1c1ccc(O)c(O)c1)c1cc(O)c(O)c(O)c1 [5b, epicatechin gallate] | 0 |
| CC(=O)OC[C@H]1O[C@@H](Sc2ccccc2)[C@H](OC(C)=O)[C@@H](OC(C)=O)C1OC(C)=O (stereo partly shown) [6a] | 60.9 ± 1.5 |
| COc1ccc2no[n+]([O-])c2c1 [6d] | 85.8 ± 3.5 |
| O=C(O)c1ccc2no[n+]([O-])c2c1 [7d] | 66 ± 4 |
| O=C(OC[C@H]1O[C@@H](OC(=O)c2ccccc2)[C@H](OC(=O)c2ccccc2)[C@@H](OC(=O)c2ccccc2)[C@@H]1OC(=O)c1ccccc1)c1ccccc1 [8a] | 67 ± 2.5 |
| [O-][n+]1onc2ccc(/C=C/[S+]([O-])c3ccccc3)cc21 (stereo not shown) [8d] | 91.6 ± 0.1 |
| [O-][n+]1onc2ccc(/C=C\Sc3ccc(F)cc3)cc21 [9d] | 81.4 ± 21.5 |
| [O-][n+]1onc2ccc(/C=C/[S+]([O-])c3ccc(F)cc3)cc21 (stereo not shown) [10d] | 55.6 ± 3.4 |
| Cc1ccc([S+]([O-])/C=C/c2ccc3no[n+]([O-])c3c2)cc1 (stereo not shown) [11d] | 70.6 ± 0.8 |
| [O-][n+]1onc2ccc(/C=C\[S+]([O-])c3ccccc3)cc21 (stereo not shown) [12d] | 56.2 ± 0.5 |
| O=S(=O)(/C=C\c1ccc2no[n+]([O-])c2c1)c1ccc(Cl)cc1 [13d] | 58 ± 0.3 |
| Cc1ccc([S+]([O-])/C=C\c2ccc3no[n+]([O-])c3c2)cc1 (stereo not shown) [14d] | 73.8 ± 4.4 |
| [O-][n+]1onc2ccc(/C=C\c3ccc4c(c3)OCO4)cc21 [15d] | 67.4 ± 1.8 |
| [O-][S+](/C=C/c1ccc2nonc2c1)c1ccccc1 (stereo not shown) [16d] | 71.9 ± 11 |
| O=[N+]([O-])c1ccc(CS(=O)(=O)/C=C/c2ccc3nonc3c2)cc1 [17d] | 116 ± 15 |
| O=S(=O)(/C=C\c1ccc2no[n+]([O-])c2c1)c1ccccc1 [18d] | 71.2 ± 0.9 |
| Cc1ccc(S(=O)(=O)/C=C\c2ccc3no[n+]([O-])c3c2)cc1 [19d] | 98.6 ± 2.4 |
| Cc1ccc(S(=O)(=O)/C=C/c2ccc3no[n+]([O-])c3c2)cc1 [20d] | 62.6 ± 4.9 |
| O=C(c1ccc2no[n+]([O-])c2c1)N1CCOCC1 [21d] | 78.7 ± 3.2 |
